Laboratory results as given in patent publication US9956222B2, “Quinazoline derivative as tyrosine-kinase inhibitor, preparation method therefor and application thereof” (Xuanzhu Pharma Co., Ltd., priority 2011, dated 2018).

What was measured:
[1] = target: T1, HER4: human epidermal growth factor receptor 4 (Homo sapiens, UniProt Q15303); test: In vitro enzyme inhibitory activity (Caliper, FAM labeled peptide); assay type: biochemical; details: HER4 kinase, 28° C., 1 h
T1 construct: purchased Carna
T1 sequence (Q15303 26-1308): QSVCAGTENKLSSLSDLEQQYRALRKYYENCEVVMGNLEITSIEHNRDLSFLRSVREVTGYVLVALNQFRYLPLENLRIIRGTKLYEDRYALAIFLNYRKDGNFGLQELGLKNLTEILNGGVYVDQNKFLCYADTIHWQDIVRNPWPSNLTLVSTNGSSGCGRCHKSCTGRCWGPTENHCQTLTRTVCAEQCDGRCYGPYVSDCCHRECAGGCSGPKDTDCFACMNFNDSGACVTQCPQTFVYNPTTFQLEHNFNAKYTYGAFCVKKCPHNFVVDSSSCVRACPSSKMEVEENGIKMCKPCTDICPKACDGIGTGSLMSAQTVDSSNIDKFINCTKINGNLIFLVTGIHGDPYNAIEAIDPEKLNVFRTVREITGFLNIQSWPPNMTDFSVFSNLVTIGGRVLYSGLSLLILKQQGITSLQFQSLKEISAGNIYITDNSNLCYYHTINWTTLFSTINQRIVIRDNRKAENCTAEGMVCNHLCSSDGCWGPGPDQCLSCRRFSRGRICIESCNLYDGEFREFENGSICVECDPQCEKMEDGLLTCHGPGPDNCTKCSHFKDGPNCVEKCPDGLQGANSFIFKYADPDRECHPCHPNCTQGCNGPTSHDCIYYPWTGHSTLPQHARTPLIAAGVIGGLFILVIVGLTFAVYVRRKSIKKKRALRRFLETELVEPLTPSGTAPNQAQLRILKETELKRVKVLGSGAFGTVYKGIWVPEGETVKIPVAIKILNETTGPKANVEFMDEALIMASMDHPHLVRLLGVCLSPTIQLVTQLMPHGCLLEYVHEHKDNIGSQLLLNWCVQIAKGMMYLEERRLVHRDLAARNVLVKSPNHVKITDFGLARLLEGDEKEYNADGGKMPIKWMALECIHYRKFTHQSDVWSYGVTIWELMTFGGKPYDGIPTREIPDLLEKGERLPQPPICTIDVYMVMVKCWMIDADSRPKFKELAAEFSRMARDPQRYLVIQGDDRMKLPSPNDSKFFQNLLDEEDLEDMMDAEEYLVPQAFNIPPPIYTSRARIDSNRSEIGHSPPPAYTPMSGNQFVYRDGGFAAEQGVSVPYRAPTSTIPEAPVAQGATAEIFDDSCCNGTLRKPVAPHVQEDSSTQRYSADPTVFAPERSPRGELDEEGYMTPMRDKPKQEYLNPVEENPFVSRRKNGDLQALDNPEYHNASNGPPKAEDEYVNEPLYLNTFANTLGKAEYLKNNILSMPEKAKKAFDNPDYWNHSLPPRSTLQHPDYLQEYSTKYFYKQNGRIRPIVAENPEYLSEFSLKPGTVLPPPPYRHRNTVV
Protocol: (§1) In vitro enzyme inhibitory activity of the present compounds
HER4: human epidermal growth factor receptor 4 (Carna).
(§2) 1. Formulating the agents to be used in the assay
(§3) (3) Stop buffer (100 mM HEPES, pH 7.5, 0.015% Brij-35, 0.2% Coating Reagent #3, 50 mM EDTA);
(§4) (6) 5-fold compound solutions (using 100% DMSO to formulate 50-fold compound solutions having different concentration gradients, and diluting with water by 10 times to obtain 5-fold compound solutions having different concentration gradients);
(§5) 2. Adding 5 μL of a 5-fold compound solution to a 384-well plate;
(§6) 3. Adding 10 μL of a 2.5-fold kinase solution to incubate for 10 min;
(§7) 4. Then adding 10 μL of a 2.5-fold peptide solution, and reacting at 28° C. for 1 h; and
(§8) 5. Finally, adding 25 μL of stop buffer to terminate the reaction, and reading the data with Caliper.
(§9) 6. Curve fitting to obtain an IC50 value. The calculated inhibition ratio (%)=(the maximum conversion rate−the conversion rate)/(the maximum conversion rate−the minimum conversion rate)×100
(§10) The curve fitting was conducted with the Xlfit software to obtain IC50 values.

[2] = target: T2, EGFR: human epidermal growth factor receptor (Homo sapiens, UniProt P00533); test: as above; assay type: biochemical; details: EGFR kinase, 28° C., 1 h
T2 construct: purchased Carna
T2 sequence (P00533 25-1210): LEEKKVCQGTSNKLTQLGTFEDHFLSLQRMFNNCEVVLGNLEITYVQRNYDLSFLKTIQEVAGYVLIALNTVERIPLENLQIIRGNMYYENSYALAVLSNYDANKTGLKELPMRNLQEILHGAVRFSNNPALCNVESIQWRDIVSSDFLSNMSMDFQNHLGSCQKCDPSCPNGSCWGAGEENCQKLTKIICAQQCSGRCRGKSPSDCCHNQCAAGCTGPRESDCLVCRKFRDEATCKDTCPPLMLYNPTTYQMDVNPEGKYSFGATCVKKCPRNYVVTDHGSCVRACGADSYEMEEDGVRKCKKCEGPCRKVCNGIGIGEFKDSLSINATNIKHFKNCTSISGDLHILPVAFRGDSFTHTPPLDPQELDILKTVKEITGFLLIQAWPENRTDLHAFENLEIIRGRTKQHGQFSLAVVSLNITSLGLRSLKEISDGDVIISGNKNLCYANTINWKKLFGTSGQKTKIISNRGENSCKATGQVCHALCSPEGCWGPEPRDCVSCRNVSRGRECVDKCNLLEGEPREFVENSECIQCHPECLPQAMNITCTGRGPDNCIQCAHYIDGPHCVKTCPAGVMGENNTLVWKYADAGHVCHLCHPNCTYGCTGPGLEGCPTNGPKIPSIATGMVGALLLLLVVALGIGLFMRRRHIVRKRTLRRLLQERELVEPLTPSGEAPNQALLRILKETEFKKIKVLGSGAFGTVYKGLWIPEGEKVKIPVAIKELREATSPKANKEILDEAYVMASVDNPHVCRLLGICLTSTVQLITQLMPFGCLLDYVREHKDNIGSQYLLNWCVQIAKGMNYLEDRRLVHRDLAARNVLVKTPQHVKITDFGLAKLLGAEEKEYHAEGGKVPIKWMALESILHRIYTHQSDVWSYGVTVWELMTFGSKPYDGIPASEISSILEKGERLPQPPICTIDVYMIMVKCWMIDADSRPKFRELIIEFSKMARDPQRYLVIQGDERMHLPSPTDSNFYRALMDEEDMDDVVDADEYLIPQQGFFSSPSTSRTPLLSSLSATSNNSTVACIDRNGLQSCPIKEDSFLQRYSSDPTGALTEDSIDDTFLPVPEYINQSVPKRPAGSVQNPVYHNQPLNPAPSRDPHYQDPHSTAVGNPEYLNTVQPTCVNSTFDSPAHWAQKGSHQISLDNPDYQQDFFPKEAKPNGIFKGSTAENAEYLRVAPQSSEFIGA
Protocol: as §1
EGFR: human epidermal growth factor receptor (Carna);
as §2, §3, §4, §5, §6, §7, §8, §9, §10

[3] = target: T3, HER2: human epidermal growth factor receptor 2 (Homo sapiens, UniProt P04626); test: as above; assay type: biochemical; details: HER2 kinase, 28° C., 1 h
T3 construct: purchased Carna
T3 sequence (P04626 23-1255): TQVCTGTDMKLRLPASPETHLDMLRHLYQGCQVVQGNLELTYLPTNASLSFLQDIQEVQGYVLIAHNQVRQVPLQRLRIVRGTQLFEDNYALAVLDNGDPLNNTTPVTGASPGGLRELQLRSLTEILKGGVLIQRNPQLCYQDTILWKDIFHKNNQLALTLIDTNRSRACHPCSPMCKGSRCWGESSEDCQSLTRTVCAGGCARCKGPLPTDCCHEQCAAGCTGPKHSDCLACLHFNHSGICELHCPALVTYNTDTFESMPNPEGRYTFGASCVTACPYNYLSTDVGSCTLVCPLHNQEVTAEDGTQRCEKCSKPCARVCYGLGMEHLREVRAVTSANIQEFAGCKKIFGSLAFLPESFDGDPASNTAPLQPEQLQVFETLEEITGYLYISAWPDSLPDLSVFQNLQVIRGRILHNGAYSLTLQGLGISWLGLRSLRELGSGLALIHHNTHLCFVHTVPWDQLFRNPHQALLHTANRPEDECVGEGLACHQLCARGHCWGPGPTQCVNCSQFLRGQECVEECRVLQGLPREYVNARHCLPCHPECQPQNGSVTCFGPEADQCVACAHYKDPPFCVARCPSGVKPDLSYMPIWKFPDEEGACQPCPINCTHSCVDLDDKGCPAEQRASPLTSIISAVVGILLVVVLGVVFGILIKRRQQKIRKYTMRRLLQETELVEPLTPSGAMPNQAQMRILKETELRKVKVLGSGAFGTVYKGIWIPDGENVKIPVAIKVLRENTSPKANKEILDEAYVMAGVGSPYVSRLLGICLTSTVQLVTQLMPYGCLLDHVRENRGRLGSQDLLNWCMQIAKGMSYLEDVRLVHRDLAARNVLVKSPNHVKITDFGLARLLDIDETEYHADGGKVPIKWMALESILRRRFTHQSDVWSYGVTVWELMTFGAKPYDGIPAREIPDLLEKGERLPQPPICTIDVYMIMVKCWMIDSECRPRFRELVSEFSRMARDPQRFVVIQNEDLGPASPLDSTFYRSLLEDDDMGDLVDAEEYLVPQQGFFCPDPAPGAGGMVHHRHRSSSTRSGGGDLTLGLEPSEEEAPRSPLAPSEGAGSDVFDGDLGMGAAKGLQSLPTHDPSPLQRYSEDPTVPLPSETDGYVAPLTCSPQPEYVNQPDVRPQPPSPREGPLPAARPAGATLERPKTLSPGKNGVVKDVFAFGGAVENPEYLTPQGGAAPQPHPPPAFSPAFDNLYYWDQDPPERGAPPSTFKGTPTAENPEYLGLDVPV
Protocol: as §1
HER2: human epidermal growth factor receptor 2 (Carna);
as §2, §3, §4, §5, §6, §7, §8, §9, §10

[4] = system: H1975 Cells (NSCLC, non-small cell lung cancer); test: In vitro cellular inhibitory activity, XTT method; assay type: cell-based; details: Homo sapiens, NCI-H1975, 72 hours, read-out: in vitro cellular inhibitory activities on H1975 IC50
Protocol: (§11) In vitro cellular inhibitory activity of the present compounds
(§12) 1. Formulating the agents and the compounds
(§13) 2) Formulating the XTT working liquor: […]
(§14) The mixture was filtered, packaged separately, and used immediately or within one week. It is necessary for all of the processes to be kept in darkness.
(§15) 3) Formulating test compounds
(§16) Formulating a stock solution of test compound: […]
(§17) The compound powder was dissolved into DMSO until a concentration of 10 mM reached.
(§18) Formulating gradient dilute solutions of test compound: […]
(§19) First, the 10 mM stock solution of test compound was diluted with DMSO in a 4-fold successive gradient for 10 concentrations. 2 μL DMSO-diluted compound was added to 998 μL of the culture medium containing 10% FBS. Therefore, the maximum concentration of the compound is 20 μM, the concentration of DMSO is 0.2%, and there are 10 concentration gradients in total.
(§20) 1) Preparing the cell suspension
(§21) The culture medium was removed from the culture bottle. The cells were rinsed twice with PBS. The pancreatic enzyme was added to digest cells. The digested cells were collected by centrifuge. The cells were resuspended with a culture medium containing 10% fetal calf serum, counted and adjusted to an appropriate concentration (the cell viability should be over 90%). The cell concentration was 5×10^4/ml.
(§22) 2) The cell suspension was added to the 96-well plate, 100 μL per well.
(§23) 3) The plate was placed in the incubator and incubated at 37° C. under 5% CO2 overnight.
(§24) Drugs were added to the cell culture plate. The plate was placed in the incubator and incubated at 37° C. under 5% CO2 for 72 hours.
(§25) 5. Testing the cell viability with the XTT method
(§26) The XTT working solution was added to the plate. The plate was placed in the incubator and incubated at 37° C. under 5% CO2 for 2 hr. Then the plate was placed in a microplate reader to read the absorbance at 450 nm.
(§27) 2) Data were input into GraphPad Prism 5.0 to plot a curve and obtain IC50.

[5] = system: SKOV3 cells (Ovarian carcinoma); test: In vitro cellular inhibitory activity, XTT method; assay type: cell-based; details: Homo sapiens, SK-OV-3, 72 hours, read-out: in vitro cellular inhibitory activities on SKOV3 IC50
Protocol: as §11, §12, §13, §14, §15, §16, §17, §18, §19, §20, §21, §22, §23, §24, §25, §26, §27

[6] = system: A431 cells (Epidermoid carcinoma); test: In vitro cellular inhibitory activity, XTT method; assay type: cell-based; details: Homo sapiens, A-431, 72 hours, read-out: in vitro cellular inhibitory activities on A431 IC50
Protocol: as §11, §12, §13, §14, §15, §16, §17, §18, §19, §20, §21, §22, §23, §24, §25, §26, §27

Row | SMILES | IC50 [1] [nM] | IC50 [2] [nM] | IC50 [3] [nM] | IC50 [4] [nM] | IC50 [5] [µM] | IC50 [6] [nM]
1 | COc1cc2ncnc(Nc3ccc(F)c(Cl)c3)c2cc1NC(=O)/C=C/CN1CC2CC2C1 (stereo not drawn) [Compound 1, (E)-4-[3-azabicyclo[3.1.0]hexan-3-yl]-N-[4-(3-chloro-4-fluorophenylamino)-7-methoxyquinazolin-6-yl]-2-butenamide] | 3.1 | 0.55 | 14 | – | – | –
2 | COc1cc2ncnc(Nc3ccc(F)c(Cl)c3)c2cc1NC(=O)/C=C/CN1CC2(CCC2)C1 [Compound 2] | 8.9 | 0.65 | 19 | 148 | 3.22 | 33.3
3 | COc1cc2ncnc(Nc3ccc(F)c(Cl)c3)c2cc1NC(=O)/C=C/CN1CC2(CCCC2)C1 [Compound 14, (E)-N-[4-(3-chloro-4-fluorophenylamino)-7-methoxyquinazolin-6-yl]-4-(2-azaspiro[3.4]octan-2-yl)-2-butenamide] | – | – | – | 134 | 3.71 | –
4 | COc1cc2ncnc(Nc3ccc(F)c(Cl)c3)c2cc1NC(=O)/C=C/CN1CC2(CCCCC2)C1 [Compound 15, (E)-N-[4-(3-chloro-4-fluorophenylamino)-7-methoxyquinazolin-6-yl]-4-(2-azaspiro[3.5]nonan-2-yl)-2-butenamide] | – | – | – | 179 | 3.65 | –
5 | COc1cc2ncnc(Nc3ccc(F)c(Cl)c3)c2cc1NC(=O)/C=C/CN1CCC2(CCC2)CC1 [Compound 17, (E)-N-[4-(3-chloro-4-fluorophenylamino)-7-methoxyquinazolin-6-yl]-4-(7-azaspiro[3.5]nonan-7-yl)-2-butenamide] | – | – | – | – | 3.06 | –
6 | COc1cc2ncnc(Nc3ccc(F)c(Cl)c3)c2cc1NC(=O)/C=C/CN1CCC2(CC2)C1 [Compound 26, (E)-N-[4-(3-chloro-4-fluorophenylamino)-7-methoxyquinazolin-6-yl]-4-(5-azaspiro[2.4]heptan-5-yl)-2-butenamide] | – | – | – | 85.6 | 3.07 | –
7 | COc1cc2ncnc(Nc3ccc(F)c(Cl)c3)c2cc1NC(=O)/C=C/CN1CCC2(CCC2)C1 [Compound 27, (E)-N-[4-(3-chloro-4-fluorophenylamino)-7-methoxyquinazolin-6-yl]-4-[6-azaspiro[3.4]octan-6-yl]-2-butenamide] | – | – | – | 91.9 | 3.19 | –
8 | COc1cc2ncnc(Nc3ccc(F)c(Cl)c3)c2cc1NC(=O)/C=C/CN1CCCC2(COC2)C1 [Compound 28, (E)-N-[4-(3-chloro-4-fluorophenylamino)-7-methoxyquinazolin-6-yl]-4-[2-oxa-6-azaspiro[3.5]nonan-6-yl]-2-butenamide] | – | – | – | 39 | – | –
9 | COc1cc2ncnc(Nc3ccc(F)c(Cl)c3)c2cc1NC(=O)/C=C/CN1CCC2(CC1)COC2 [Compound 29, (E)-N-[4-(3-chloro-4-fluorophenylamino)-7-methoxyquinazolin-6-yl]-4-(2-oxa-7-azaspiro[3.5]nonan-7-yl)-2-butenamide] | – | – | – | 57.1 | – | –
10 | COc1cc2ncnc(Nc3ccc(F)c(Cl)c3)c2cc1NC(=O)/C=C/CN1CCC2(CC1)CC2 [Compound 30, (E)-N-[4-(3-chloro-4-fluorophenylamino)-7-methoxyquinazolin-6-yl]-4-(6-azaspiro[2.5]octan-6-yl)-2-butenamide] | – | – | – | – | 3.35 | –
11 | COc1cc2ncnc(Nc3ccc(F)c(Cl)c3)c2cc1NC(=O)/C=C/CN1CCCCC1 [PF-00299804, reference compound] | – | – | – | 356 | 3.96 | 548
